Measurements published in ChEMBL document CHEMBL1944566, “Conjugation of cell-penetrating peptides leads to identification of anti-HIV peptides from matrix proteins” (Bioorg Med Chem, 2012).
The source made the active and inactive calls. No cut-off for these calls is given here. Where a SMILES comes first, the peptide text is derived from it. The star is where a group is joined. Cam = NC(=O)C*

Tests used:
[1] = test system: Human immunodeficiency virus 1; assay: Antiviral activity against R5 tropic HIV1 JR-CSF in PM1/CCR5 cells assessed as protection from virus-induced cytopathogenicity measuring capsid p24 level after 5 days by ELISA; format: functional, cell-based; details: Human immunodeficiency virus 1, JRCSF ISOLATE, PM1/CCR5, 120 h
[2] = Cytotoxicity against human MT4 cells after 5 days by MTT assay; format: cell-based
[3] = test system: Human immunodeficiency virus 1; assay: Antiviral activity against R5 tropic HIV1 NL(AD8) in PM1/CCR5 cells assessed as protection from virus-induced cytopathogenicity at 50 uM after 5 days by MTT assay; format: functional; details: Human immunodeficiency virus 1, NL(AD8), PM1/CCR5, 120 h
[4] = test system: Human immunodeficiency virus 1; assay: Antiviral activity against X4 tropic HIV1 NL4-3 in MT4 cells assessed as protection from virus-induced cytopathogenicity after 5 days by MTT assay; format: functional, organism-based; details: Human immunodeficiency virus 1, NL4-3, MT4, 120 h
[5] = Solubility in PBS buffer; format: physicochemical
[6] = test system: Human immunodeficiency virus 1; assay: Antiviral activity against X4 tropic HIV1 NL4-3 in MT4 cells assessed as protection from virus-induced cytopathogenicity at 25 uM after 5 days by MTT assay; format: functional, organism-based
[7] = test system: Human immunodeficiency virus 1; assay: Antiviral activity against R5 tropic HIV1 NL(AD8) in PM1/CCR5 cells assessed as protection from virus-induced cytopathogenicity after 5 days by MTT assay; format: functional, organism-based; details: Human immunodeficiency virus 1, NL(AD8), PM1/CCR5, 120 h
[8] = test system: Human immunodeficiency virus 1; assay: Antiviral activity against X4 tropic HIV1 NL4-3 in MT4 cells assessed as protection from virus-induced cytopathogenicity at 12.5 uM after 5 days by MTT assay; format: functional, organism-based

In the case of `CC[C@H](C)[C@H](NC(=O)[C@H](CCCCN)NC(=O)[C@H](CC(=O)O)NC(=O)[C@H](CC(C)C)NC(=O)[C@H](C)NC(=O)[C@H](CCC(=O)O)NC(=O)[C@H](CCCCN)NC(=O)[C@@H](NC(=O)[C@H](CC(=O)O)NC(=O)[C@H](CCCCN)NC(=O)[C@@H](NC(=O)[C@H](CC(=O)O)NC(=O)[C@@H](NC(=O)[C@H](CCCNC(=N)N)NC(C)=O)[C@@H](C)CC)C(C)C)[C@@H](C)O)C(=O)N[C@@H](CCC(=O)O)C(=O)NCC(=O)N[C@@H](CSCC(=O)N[C@@H](CCCNC(=N)N)C(=O)N[C@@H](CCCNC(=N)N)C(=O)N[C@@H](CCCNC(=N)N)C(=O)N[C@@H](CCCNC(=N)N)C(=O)N[C@@H](CCCNC(=N)N)C(=O)N[C@@H](CCCNC(=N)N)C(=O)N[C@@H](CCCNC(=N)N)C(=O)N[C@@H](CCCNC(=N)N)C(N)=O)C(N)=O`, the EC50 [1] is reported as 27 µM, the CC50 at 120 h [2] is reported as greater than 50 µM and the inhibition at 50 µM [3] is reported as 42%. The EC50 [4] was 43 µM.
In the case of `CC(=O)N[C@@H](CC(=O)O)C(=O)N[C@H](C(=O)NCC(=O)N[C@@H](CC(N)=O)C(=O)N[C@@H](CC(N)=O)C(=O)N[C@@H](CO)C(=O)N[C@@H](CCC(N)=O)C(=O)N[C@H](C(=O)N[C@@H](CO)C(=O)N[C@@H](CCC(N)=O)C(=O)N[C@@H](CC(N)=O)C(=O)N[C@@H](Cc1ccc(O)cc1)C(=O)NCC(=O)N[C@@H](CS)C(N)=O)C(C)C)[C@@H](C)O`, the solubility [5] is reported as “Insoluble”.
With `CC[C@H](C)[C@H](NC(=O)[C@H](Cc1cnc[nH]1)NC(=O)[C@H](CCCCN)NC(=O)[C@H](CC(C)C)NC(=O)[C@H](CCCCN)NC(=O)[C@H](Cc1ccc(O)cc1)NC(=O)[C@H](CCC(N)=O)NC(=O)[C@H](CCC(=O)O)NC(=O)[C@H](Cc1c[nH]c2ccccc12)NC(=O)[C@H](CCCCN)NC(=O)[C@H](CC(=O)O)NC(=O)[C@H](CC(C)C)NC(=O)[C@H](CCC(=O)O)NC(=O)CNC(C)=O)C(=O)N[C@H](C(=O)NCC(=O)N[C@@H](CSCC(=O)N[C@@H](CCCNC(=N)N)C(=O)N[C@@H](CCCNC(=N)N)C(=O)N[C@@H](CCCNC(=N)N)C(=O)N[C@@H](CCCNC(=N)N)C(=O)N[C@@H](CCCNC(=N)N)C(=O)N[C@@H](CCCNC(=N)N)C(=O)N[C@@H](CCCNC(=N)N)C(=O)N[C@@H](CCCNC(=N)N)C(N)=O)C(N)=O)C(C)C` the inhibition [6] was “inactive” and the CC50 at 120 h [2] was 36 µM.
In the case of `CC[C@H](C)[C@H](NC(=O)[C@H](CCCNC(=N)N)NC(=O)[C@H](CCC(N)=O)NC(=O)[C@H](Cc1cnc[nH]1)NC(=O)[C@@H](NC(=O)[C@H](CO)NC(=O)[C@H](Cc1ccc(O)cc1)NC(=O)[C@H](CC(C)C)NC(=O)[C@@H](NC(=O)[C@H](C)NC(=O)[C@@H](NC(=O)[C@@H](NC(C)=O)[C@@H](C)O)[C@@H](C)CC)C(C)C)C(C)C)C(=O)N[C@@H](CC(=O)O)C(=O)N[C@H](C(=O)N[C@@H](CCCCN)C(=O)NCC(=O)N[C@@H](CSCC(=O)N[C@@H](CCCNC(=N)N)C(=O)N[C@@H](CCCNC(=N)N)C(=O)N[C@@H](CCCNC(=N)N)C(=O)N[C@@H](CCCNC(=N)N)C(=O)N[C@@H](CCCNC(=N)N)C(=O)N[C@@H](CCCNC(=N)N)C(=O)N[C@@H](CCCNC(=N)N)C(=O)N[C@@H](CCCNC(=N)N)C(N)=O)C(N)=O)C(C)C`, the EC50 [1] is reported as 0.58 µM, the CC50 at 120 h [2] is reported as 5.7 µM and the solubility [5] is reported as “soluble”. For the same molecule, the EC50 [7] was 0.43 µM and the EC50 [4] was 2.1 µM.
For `CC[C@H](C)[C@H](NC(=O)[C@@H](NC(=O)[C@H](CC(N)=O)NC(=O)[C@H](Cc1ccc(O)cc1)NC(=O)[C@H](CC(C)C)NC(=O)[C@H](CO)NC(=O)[C@H](CCCNC(=N)N)NC(=O)[C@H](CC(C)C)NC(=O)[C@H](CCC(=O)O)NC(=O)[C@H](CCC(=O)O)NC(=O)[C@H](CO)NC(=O)CNC(C)=O)[C@@H](C)O)C(=O)N[C@@H](C)C(=O)N[C@H](C(=O)N[C@@H](CC(C)C)C(=O)NCC(=O)N[C@@H](CSCC(=O)N[C@@H](CCCNC(=N)N)C(=O)N[C@@H](CCCNC(=N)N)C(=O)N[C@@H](CCCNC(=N)N)C(=O)N[C@@H](CCCNC(=N)N)C(=O)N[C@@H](CCCNC(=N)N)C(=O)N[C@@H](CCCNC(=N)N)C(=O)N[C@@H](CCCNC(=N)N)C(=O)N[C@@H](CCCNC(=N)N)C(N)=O)C(N)=O)C(C)C`, the EC50 [1] was 7.8 µM, the CC50 at 120 h [2] was 9 µM and the solubility [5] was “soluble”. The EC50 [7] was 5.8 µM and the EC50 [4] was 2.3 µM.
For `CC[C@H](C)[C@H](NC(=O)[C@H](CCC(N)=O)NC(=O)[C@H](CCCNC(=N)N)NC(=O)[C@H](CO)NC(=O)CNC(=O)[C@H](CCC(=O)O)NC(=O)[C@H](CO)NC(=O)[C@@H](NC(=O)[C@H](CCC(=O)O)NC(=O)[C@H](CC(C)C)NC(C)=O)[C@@H](C)O)C(=O)N[C@@H](CC(C)C)C(=O)NCC(=O)N[C@@H](CCC(N)=O)C(=O)N[C@@H](CC(C)C)C(=O)N[C@@H](CCC(N)=O)C(=O)NCC(=O)N[C@@H](CSCC(=O)N[C@@H](CCCNC(=N)N)C(=O)N[C@@H](CCCNC(=N)N)C(=O)N[C@@H](CCCNC(=N)N)C(=O)N[C@@H](CCCNC(=N)N)C(=O)N[C@@H](CCCNC(=N)N)C(=O)N[C@@H](CCCNC(=N)N)C(=O)N[C@@H](CCCNC(=N)N)C(=O)N[C@@H](CCCNC(=N)N)C(N)=O)C(N)=O`, the EC50 [1] was 31 µM, the CC50 at 120 h [2] was greater than 50 µM and the inhibition at 50 µM [3] was 49%. It also gave an EC50 [4] of 40 µM.
For `CC[C@H](C)[C@H](NC(=O)[C@H](Cc1cnc[nH]1)NC(=O)[C@H](CCCCN)NC(=O)[C@H](CC(C)C)NC(C)=O)C(=O)N[C@H](C(=O)N[C@@H](Cc1c[nH]c2ccccc12)C(=O)N[C@@H](C)C(=O)N[C@@H](CO)C(=O)N[C@@H](CCCNC(=N)N)C(=O)N[C@@H](CCC(=O)O)C(=O)N[C@@H](CC(C)C)C(=O)N[C@@H](CCC(=O)O)C(=O)N[C@@H](CCCNC(=N)N)C(=O)N[C@@H](Cc1ccccc1)C(=O)N[C@@H](C)C(=O)NCC(=O)N[C@@H](CSCC(N)=O)C(N)=O)C(C)C` (Ac-LKHIVWASRELERFAGC(Cam)-NH2), the CC50 at 120 h [2] was 14 µM and the inhibition [8] was “inactive”.
In the case of `CC[C@H](C)[C@H](NC(=O)[C@H](CCCCN)NC(=O)[C@H](CC(=O)O)NC(=O)[C@H](CC(C)C)NC(=O)[C@H](C)NC(=O)[C@H](CCC(=O)O)NC(=O)[C@H](CCCCN)NC(=O)[C@@H](NC(=O)[C@H](CC(=O)O)NC(=O)[C@H](CCCCN)NC(=O)[C@@H](NC(=O)[C@H](CC(=O)O)NC(=O)[C@@H](NC(=O)[C@H](CCCNC(=N)N)NC(C)=O)[C@@H](C)CC)C(C)C)[C@@H](C)O)C(=O)N[C@@H](CCC(=O)O)C(=O)NCC(=O)N[C@@H](CSCC(N)=O)C(N)=O`, the CC50 at 120 h [2] is reported as 17 µM and the inhibition [8] is reported as “inactive”.
Work on `CC(=O)N[C@@H](CC(C)C)C(=O)N[C@@H](CCC(=O)O)C(=O)N[C@@H](CCCNC(=N)N)C(=O)N[C@@H](Cc1ccccc1)C(=O)N[C@@H](C)C(=O)N[C@H](C(=O)N[C@@H](CC(N)=O)C(=O)N1CCC[C@H]1C(=O)NCC(=O)N[C@@H](CC(C)C)C(=O)N[C@@H](CC(C)C)C(=O)N[C@@H](CCC(=O)O)C(=O)N[C@H](C(=O)N[C@@H](CO)C(=O)N[C@@H](CCC(=O)O)C(=O)NCC(=O)N[C@@H](CSCC(=O)N[C@@H](CCCNC(=N)N)C(=O)N[C@@H](CCCNC(=N)N)C(=O)N[C@@H](CCCNC(=N)N)C(=O)N[C@@H](CCCNC(=N)N)C(=O)N[C@@H](CCCNC(=N)N)C(=O)N[C@@H](CCCNC(=N)N)C(=O)N[C@@H](CCCNC(=N)N)C(=O)N[C@@H](CCCNC(=N)N)C(N)=O)C(N)=O)[C@@H](C)O)C(C)C` yielded an EC50 [1] of 42 µM, a CC50 at 120 h [2] greater than 50 µM and an inhibition at 50 µM [3] of 42%. For the same molecule, the EC50 [4] was 40 µM.
